Consider 2 molecules from patent publication US10899738B2 (THE REGENTS OF THE UNIVERSITY OF MICHIGAN, priority 2016, dated 2021).

Like-named read-outs stand apart in the source and are kept apart here.

One assay addresses menin protein (Homo sapiens (Human), UniProt O00255). The assay is described as follows: biochemical. The class given is binding. Put shortly:
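Test compounds displaced FAM-MM2 (2 nM) from 4 nM menin after 30 min equilibration at room temperature in PBS buffer containing bovine γ-globulin, 4% DMSO and Triton X-100. Binding was followed by fluorescence polarization. Competition curves were fitted by nonlinear regression to give IC50 and Ki.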

Assay [1] is described as follows: Cell growth inhibition, CellTiter-Glo Luminescent Cell Viability Assay. The class given is cell-based. Put shortly: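 Cells seeded at 2,000/well with serially diluted compound and cultured 4 days at 37 °C, 5% CO2. Viability read by CellTiter-Glo luminescence; IC50 derived from dose-response.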
On the technique in general: In ATP-based viability assays light output follows the ATP content of the culture.

Another assay has as its system MOLM-13 cells. The assay is described as follows: Mechanism of action studies, gene expression measured with qPCR in MOLM-13 cells. The class given is cell-based. As for the experimental part:
(§1) MOLM-13 or MV4-11 cells were seeded in a 6-well plate at a density of 500,000 cells/well in 2 ml of culture medium and treated with either Cpd. No. 210 or Cpd. No. 366 at the concentrations as indicated. About 4 days after the treatments, cells were harvested and the expression of each gene was measured with qPCR.
MOLM-13 cells were seeded in a 6-well plate at a density of 500,000 cells/well in 2 ml of culture medium and treated with either Cpd. No. 366 or Cpd. No. 238 at the concentrations as indicated. About 66 hours after the treatment, cells were harvested and the expression of each gene was measured with qPCR.
(§2) MOLM-13 or MV4-11 cells were seeded in a 6-well plate at a density of 500,000-800,000 cells/well in 2 ml of culture medium and treated with either Cpd. No. 366 or Cpd. No. 215 at the concentrations as indicated. About 40 hours after the treatment, cells were harvested and the expression of each gene was measured with qPCR.
Background: In qPCR the cycle at which signal appears reflects the starting amount.

Another assay deals with MV4-11 cells. Briefly: Mechanism of action studies, gene expression measured with qPCR in MV4-11 cells. The class given is cell-based. As to the method:
as §1, §2

Where [2] appears, read: MOLM-13, 96 h, read-out: Cell Growth Inhibition IC50 (μM) MOLM13.
[3] abbreviates: MV4-11, 96 h, read-out: Cell Growth Inhibition IC50 (μM) MV4, 11.
[4] abbreviates: 66 hours of treatment, dose dependent.
Where [5] appears, read: 4 days of treatment, dose dependent.

Sequence of menin protein (O00255 whole entry): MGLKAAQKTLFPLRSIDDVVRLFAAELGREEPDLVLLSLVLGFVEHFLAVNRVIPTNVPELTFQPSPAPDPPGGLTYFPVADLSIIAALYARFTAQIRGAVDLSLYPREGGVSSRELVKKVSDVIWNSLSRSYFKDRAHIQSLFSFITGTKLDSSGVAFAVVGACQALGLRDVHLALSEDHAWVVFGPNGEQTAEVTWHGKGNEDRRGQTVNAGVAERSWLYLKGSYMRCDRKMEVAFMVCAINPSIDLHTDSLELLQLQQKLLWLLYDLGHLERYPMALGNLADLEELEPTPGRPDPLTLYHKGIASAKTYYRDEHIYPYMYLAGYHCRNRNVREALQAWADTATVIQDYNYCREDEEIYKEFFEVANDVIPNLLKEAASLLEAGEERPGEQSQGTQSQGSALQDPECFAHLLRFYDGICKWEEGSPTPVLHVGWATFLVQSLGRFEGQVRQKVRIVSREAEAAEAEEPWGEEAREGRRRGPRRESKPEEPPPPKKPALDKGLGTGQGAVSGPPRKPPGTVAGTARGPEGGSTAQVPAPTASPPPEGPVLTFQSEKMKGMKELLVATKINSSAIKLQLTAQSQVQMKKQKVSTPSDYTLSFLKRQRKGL

Usually IC50 stands for the midpoint of a concentration-inhibition curve. For `CNC(=O)O[C@H]1CCC[C@@H]1C(Cn1ccnc1)(c1ccccc1)C1CCN(CC2CN(c3ccc(C#N)cc3)C2)CC1` (mixture of isomers) [Cpd. No. 366, rac-(1S,2R)-2-(1-(1-((1-(4-cyanophenyl)azetidin-3-yl)methyl)piperidin-4-yl)-2-(1H-imidazol-1-yl)-1-phenylethyl)cyclopentyl methylcarbamate], the IC50 on menin protein (FP competitive binding, menin protein 4 nM, FAM-MM2 probe 2 nM, read-out: Menin Binding Affinity IC50) came to 0.009 µM; in assay [1] (setting [2]), 0.14 µM; in assay [1] (setting [3]), 0.035 µM. The MEIS1 gene expression entry with MOLM-13 cells (40 hours of treatment), in the assay on MOLM-13 cells (66 hours of treatment), in the assay on MOLM-13 cells (4 days of treatment), with MV4-11 cells (40 hours of treatment) and with MV4-11 cells (4 days of treatment) was “reduced” each time. The “all the tested HOX genes (HOX7, HOX9, HOX10, HOX11) expression” value in the assay on MOLM-13 cells (40 hours of treatment, dose dependent) is given as “reduces”. The ITGAM gene expression entry with MOLM-13 cells (66 hours of treatment) is reported as “not effect”. Besides, the HOX7 gene expression result with MOLM-13 cells (setting [4]) is “reduced”; in the assay with MOLM-13 cells (setting [5]), “reduced”; in the assay on MV4-11 cells (40 hours of treatment), “Neither Cpd. No. 366 nor Cpd. No. 215 showed an effect”; in the assay on MV4-11 cells (4 days of treatment), “not as robust as those of HOX10”. Further, the HOX10 gene expression result in the assay on MOLM-13 cells (setting [4]) was “reduced”; in the assay on MOLM-13 cells (setting [5]), “reduced”; in the assay on MV4-11 cells (40 hours of treatment) it was “significantly reduced”; with MV4-11 cells (setting [5]), “reduced”. The MYB gene expression result is “may reduce” with MOLM-13 cells (4 days of treatment, high concentration) and “no effect” in the assay on MV4-11 cells (4 days of treatment). Besides, the HOX11 gene expression result with MV4-11 cells (40 hours of treatment) is “significantly reduced”.

Turning to `CNC(=O)O[C@H]1CCC[C@@H]1C1(C2CCN(CC3CN(c4ccc(S(=O)(=O)c5ccncc5)cc4)C3)CC2)CN(C)Cc2ccccc21` (mixture of isomers) [Cpd. No. 210, rac-(1S,2R)-2-(2-methyl-4-(1-((1-(4-(pyridin-4-ylsulfonyl)phenyl)azetidin-3-yl)methyl)piperidin-4-yl)-1,2,3,4-tetrahydroisoquinolin-4-yl)cyclopentyl methylcarbamate], the IC50 on menin protein (Menin Binding Affinity IC50 (μM)) came out at 0.004 µM; in assay [1] (setting [2]) it was 0.135 ± 0.093 µM; in assay [1] (setting [3]), 0.023 ± 0.016 µM. In addition, the MEIS1 gene expression entry in the assay with MOLM-13 cells (4 days of treatment) and in the assay on MV4-11 cells (4 days of treatment) was “reduced” throughout. Besides, the HOX7 gene expression result in the assay with MOLM-13 cells (setting [5]) is reported as “reduced”; with MV4-11 cells (4 days of treatment), “not as robust as those of HOX10”. The HOX10 gene expression result in the assay on MOLM-13 cells (setting [5]) and with MV4-11 cells (setting [5]) was “reduced” each time. The MYB gene expression entry in the assay with MV4-11 cells (4 days of treatment) is “no effect”.
